According to ChEMBL document CHEMBL3526097, “Preclinical disposition of GDC-0973 and prospective and retrospective analysis of human dose and efficacy predictions” (Drug Metab Dispos, 2012):

Legend:
[1] = test system: Lung; assay: Drug uptake in Long-Evans rat lung at 30 mg/kg, po after 2 hrs by autoradiography; assay type: ADME, organism-based; design: dose 30 mg/kg, route oral; settings: in vivo
[2] = Percentage unbound in rat plasma at 1 uM after 5 hrs by equilibrium dialysis; assay type: ADME, cell-free
[3] = Drug excretion in bile duct-intact Beagle dog urine at 30 mg/kg, po after 72 hrs by liquid scintillation counting; assay type: ADME, organism-based, Canis lupus familiaris; design: dose 30 mg/kg, route oral; settings: in vivo
[4] = Percentage unbound in dog plasma at 1 uM after 5 hrs by equilibrium dialysis; assay type: ADME, cell-free, Canis lupus familiaris
[5] = Ratio of drug level in blood to plasma in Sprague-Dawley rat at 10 uM after 30 mins; assay type: ADME
[6] = Percentage unbound in human alpha-1-acid glycoprotein at 1 uM after 5 hrs by equilibrium dialysis; assay type: ADME
[7] = Ratio of drug level in blood to plasma in human at 1 uM after 30 mins; assay type: ADME
[8] = Percentage unbound in mouse plasma at 1 uM after 5 hrs by equilibrium dialysis; assay type: ADME, cell-free
[9] = Drug excretion in bile duct-intact Sprague-Dawley rat urine at 30 mg/kg, po after 48 hrs by liquid scintillation counting; assay type: ADME, organism-based; design: dose 30 mg/kg, route oral; settings: in vivo
[10] = target: T1, Albumin (Homo sapiens, UniProt P02768); assay: Percentage unbound in human serum albumin at 5 uM after 5 hrs by equilibrium dialysis; assay type: ADME
[11] = Percentage unbound in cynomolgus monkey plasma at 5 uM after 5 hrs by equilibrium dialysis; assay type: ADME, cell-free, Macaca fascicularis
[12] = test system: Liver; assay: Drug uptake in Long-Evans rat liver at 30 mg/kg, po after 2 hrs by autoradiography; assay type: ADME, organism-based; design: dose 30 mg/kg, route oral; settings: in vivo
[13] = test system: Large intestine; assay: Drug uptake in Long-Evans rat large intestine at 30 mg/kg, po after 2 hrs by autoradiography; assay type: ADME, organism-based; design: dose 30 mg/kg, route oral; settings: in vivo
[14] = Ratio of drug level in blood to plasma in human at 10 uM after 30 mins; assay type: ADME
[15] = test system: Intestine; assay: Drug uptake in Long-Evans rat intestine at 30 mg/kg, po after 72 hrs by autoradiography; assay type: ADME, organism-based; design: dose 30 mg/kg, route oral; settings: in vivo
[16] = Ratio of drug level in blood to plasma in beagle dog at 1 uM after 30 mins; assay type: ADME, Canis lupus familiaris
[17] = target: T1, Albumin; assay: Percentage unbound in human serum albumin at 1 uM after 5 hrs by equilibrium dialysis; assay type: ADME
[18] = Percentage unbound in human plasma at 1 uM after 5 hrs by equilibrium dialysis; assay type: ADME, cell-free
[19] = Percentage unbound in human plasma at 10 uM after 5 hrs by equilibrium dialysis; assay type: ADME, cell-free
[20] = Ratio of drug level in blood to plasma in cynomolgus monkey at 5 uM after 30 mins; assay type: ADME, Macaca fascicularis
[21] = Ratio of drug level in blood to plasma in beagle dog at 5 uM after 30 mins; assay type: ADME, Canis lupus familiaris
[22] = test system: Kidney; assay: Drug uptake in Long-Evans rat kidney at 30 mg/kg, po after 72 hrs by autoradiography; assay type: ADME, organism-based; design: dose 30 mg/kg, route oral; settings: in vivo
[23] = Percentage unbound in human alpha-1-acid glycoprotein at 5 uM after 5 hrs by equilibrium dialysis; assay type: ADME
[24] = Percentage unbound in human plasma at 5 uM after 5 hrs by equilibrium dialysis; assay type: ADME, cell-free
[25] = Ratio of drug level in blood to plasma in CD1 mouse at 1 uM after 30 mins; assay type: ADME
[26] = Percentage unbound in mouse plasma at 10 uM after 5 hrs by equilibrium dialysis; assay type: ADME, cell-free
[27] = Ratio of drug level in blood to plasma in cynomolgus monkey at 1 uM after 30 mins; assay type: ADME, Macaca fascicularis
[28] = Percentage unbound in dog plasma at 10 uM after 5 hrs by equilibrium dialysis; assay type: ADME, cell-free, Canis lupus familiaris
[29] = Drug excretion in bile duct-intact Sprague-Dawley rat feces at 30 mg/kg, po after 48 hrs by liquid scintillation counting; assay type: ADME, organism-based; design: dose 30 mg/kg, route oral; settings: in vivo
[30] = Ratio of drug level in blood to plasma in Sprague-Dawley rat at 1 uM after 30 mins; assay type: ADME
[31] = Drug excretion in bile duct-cannulated Sprague-Dawley rat bile at 30 mg/kg, po after 48 hrs by liquid scintillation counting; assay type: ADME, organism-based; design: dose 30 mg/kg, route oral; settings: in vivo
[32] = Percentage unbound in rat plasma at 10 uM after 5 hrs by equilibrium dialysis; assay type: ADME, cell-free
[33] = Percentage unbound in rat plasma at 5 uM after 5 hrs by equilibrium dialysis; assay type: ADME, cell-free
[34] = Percentage unbound in dog plasma at 5 uM after 5 hrs by equilibrium dialysis; assay type: ADME, cell-free, Canis lupus familiaris
[35] = Percentage unbound in cynomolgus monkey plasma at 1 uM after 5 hrs by equilibrium dialysis; assay type: ADME, cell-free, Macaca fascicularis
[36] = test system: Cerebrum; assay: Drug uptake in Long-Evans rat cerebrum at 30 mg/kg, po after 4 hrs by autoradiography; assay type: ADME, organism-based; design: dose 30 mg/kg, route oral; settings: in vivo
[37] = Percentage unbound in mouse plasma at 5 uM after 5 hrs by equilibrium dialysis; assay type: ADME, cell-free
[38] = Percentage unbound in human alpha-1-acid glycoprotein at 10 uM after 5 hrs by equilibrium dialysis; assay type: ADME
[39] = Ratio of drug level in blood to plasma in human at 5 uM after 30 mins; assay type: ADME
[40] = Ratio of drug level in blood to plasma in beagle dog at 10 uM after 30 mins; assay type: ADME, Canis lupus familiaris
[41] = Drug uptake in Long-Evans rat melanin containing tissue at 30 mg/kg, po after 72 hrs by autoradiography; assay type: ADME, organism-based; design: dose 30 mg/kg, route oral; settings: in vivo
[42] = Drug excretion in bile duct-intact Beagle dog feces at 30 mg/kg, po after 72 hrs by liquid scintillation counting; assay type: ADME, organism-based, Canis lupus familiaris; design: dose 30 mg/kg, route oral; settings: in vivo
[43] = Drug uptake in Long-Evans rat lacrimal gland at 30 mg/kg, po after 2 hrs by autoradiography; assay type: ADME, organism-based, Lachrymal gland; design: dose 30 mg/kg, route oral; settings: in vivo
[44] = Ratio of drug level in blood to plasma in CD1 mouse at 5 uM after 30 mins; assay type: ADME
[45] = Ratio of drug level in blood to plasma in cynomolgus monkey at 10 uM after 30 mins; assay type: ADME, Macaca fascicularis
[46] = Ratio of drug level in blood to plasma in CD1 mouse at 10 uM after 30 mins; assay type: ADME
[47] = test system: Liver; assay: Drug uptake in Long-Evans rat liver at 30 mg/kg, po after 72 hrs by autoradiography; assay type: ADME, organism-based; design: dose 30 mg/kg, route oral; settings: in vivo
[48] = Percentage unbound in cynomolgus monkey plasma at 10 uM after 5 hrs by equilibrium dialysis; assay type: ADME, cell-free, Macaca fascicularis
[49] = Ratio of drug level in blood to plasma in Sprague-Dawley rat at 5 uM after 30 mins; assay type: ADME
[50] = test system: Adrenal gland; assay: Drug uptake in Long-Evans rat adrenal gland at 30 mg/kg, po after 2 hrs by autoradiography; assay type: ADME, organism-based; design: dose 30 mg/kg, route oral; settings: in vivo
[51] = target: T1, Albumin; assay: Percentage unbound in human serum albumin at 10 uM after 5 hrs by equilibrium dialysis; assay type: ADME
[52] = Drug excretion in bile duct-cannulated Beagle dog bile at 30 mg/kg, po after 168 hrs by liquid scintillation counting; assay type: ADME, organism-based, Canis lupus familiaris; design: dose 30 mg/kg, route oral; settings: in vivo

T1 sequence (P02768 whole entry): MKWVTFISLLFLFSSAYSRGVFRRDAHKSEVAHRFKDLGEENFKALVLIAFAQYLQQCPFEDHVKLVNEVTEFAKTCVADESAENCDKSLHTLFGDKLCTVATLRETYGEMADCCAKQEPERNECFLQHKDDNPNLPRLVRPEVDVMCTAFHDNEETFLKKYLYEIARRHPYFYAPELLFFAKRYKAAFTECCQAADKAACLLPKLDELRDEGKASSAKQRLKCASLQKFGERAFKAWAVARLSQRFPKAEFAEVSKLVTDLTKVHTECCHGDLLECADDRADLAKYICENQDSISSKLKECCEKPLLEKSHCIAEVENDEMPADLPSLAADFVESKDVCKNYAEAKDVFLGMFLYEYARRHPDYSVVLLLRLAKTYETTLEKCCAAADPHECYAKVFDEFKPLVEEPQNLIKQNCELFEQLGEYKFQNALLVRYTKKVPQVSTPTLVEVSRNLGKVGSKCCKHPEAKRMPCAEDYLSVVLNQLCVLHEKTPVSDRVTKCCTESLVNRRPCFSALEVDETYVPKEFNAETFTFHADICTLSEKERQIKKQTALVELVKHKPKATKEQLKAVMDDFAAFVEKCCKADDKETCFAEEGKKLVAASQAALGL

SMILES: O=C(c1ccc(F)c(F)c1N[14c]1[14cH][14cH][14c](I)[14cH][14c]1F)N1CC(O)([C@@H]2CCCCN2)C1
- Drug uptake [1]: Active
- fraction unbound at 5 h, 1 µM [2]: 0.028
- Drug excretion [3]: 6.3%
- fraction unbound at 5 h, 1 µM [4]: 0.007
- blood plasma ratio at 0.5 h, 10 µM [5]: 1.51
- fraction unbound at 5 h, 1 µM [6]: 0.044
- blood plasma ratio at 0.5 h, 1 µM [7]: 0.933
- fraction unbound at 5 h, 1 µM [8]: 0.041
- Drug excretion [9]: 2.2%
- fraction unbound at 5 h, 5 µM [10]: 0.408
- fraction unbound at 5 h, 5 µM [11]: 0.044
- Drug uptake [12]: Active
- Drug uptake [13]: Active
- blood plasma ratio at 0.5 h, 10 µM [14]: 1.05
- Drug uptake [15]: Active
- blood plasma ratio at 0.5 h, 1 µM [16]: 0.632
- fraction unbound at 5 h, 1 µM [17]: 0.469
- fraction unbound at 5 h, 1 µM [18]: 0.052
- fraction unbound at 5 h, 10 µM [19]: 0.058
- blood plasma ratio at 0.5 h, 5 µM [20]: 1.64
- blood plasma ratio at 0.5 h, 5 µM [21]: 0.752
- Drug uptake [22]: Active
- fraction unbound at 5 h, 5 µM [23]: 0.042
- fraction unbound at 5 h, 5 µM [24]: 0.065
- blood plasma ratio at 0.5 h, 1 µM [25]: 1.16
- fraction unbound at 5 h, 10 µM [26]: 0.033
- blood plasma ratio at 0.5 h, 1 µM [27]: 1.57
- fraction unbound at 5 h, 10 µM [28]: 0.014
- Drug excretion [29]: 85%
- blood plasma ratio at 0.5 h, 1 µM [30]: 1.36
- Drug excretion [31]: 74%
- fraction unbound at 5 h, 10 µM [32]: 0.037
- fraction unbound at 5 h, 5 µM [33]: 0.035
- fraction unbound at 5 h, 5 µM [34]: 0.012
- fraction unbound at 5 h, 1 µM [35]: 0.045
- Drug uptake [36]: Active
- fraction unbound at 5 h, 5 µM [37]: 0.034
- fraction unbound at 5 h, 10 µM [38]: 0.053
- blood plasma ratio at 0.5 h, 5 µM [39]: 0.945
- blood plasma ratio at 0.5 h, 10 µM [40]: 0.936
- Drug uptake [41]: Active
- Drug excretion [42]: 80%
- Drug uptake [43]: Active
- blood plasma ratio at 0.5 h, 5 µM [44]: 1.19
- blood plasma ratio at 0.5 h, 10 µM [45]: 1.82
- blood plasma ratio at 0.5 h, 10 µM [46]: 1.27
- Drug uptake [47]: Active
- fraction unbound at 5 h, 10 µM [48]: 0.048
- blood plasma ratio at 0.5 h, 5 µM [49]: 1.37
- Drug uptake [50]: Active
- fraction unbound at 5 h, 10 µM [51]: 0.408
- Drug excretion [52]: 65%
